Source: patent US20050163773A1, “Methods and pharmaceutical compositions for dopaminergic modulation of t-cell adhesion and activity” (priority 2001, published 2005)
“Also recorded” adds a separate entry of the source.

How the values were obtained:
IL-10 secretion [1] = test: IL-10 secretion by human peripheral T-cells (sandwich ELISA); type: cell-based; conditions: for inhibition of Dopamine-induced IL-10 secretion by receptor-specific antagonists: L-741,626 10^−7 M, U-Mal 10^−6 M, L-741,741 10^−6 M
Excerpt: The results are expressed as pg/ml IL-10. […] Immunostaining is with intracellular anti-IL-10 FITC conjugated (FL-1) and anti-CD4 PE conjugated (FL-2) antibodies, as described in Materials and Methods hereinbelow.
(§1) The results are expressed as pg/mi.
(§2) The results are expressed as pg/ml.
as §2, §2

[2] = system: normal human peripheral T-cells; conditions: Dopamine 10^−8 M, 48 hours
normal human T-cells = test: T-cell adhesion assay (adhesion of human T-cells to fibronectin); conditions: dose dependence, human T-cells
Protocol: T-cell adhesion assay: In the majority of the experiments, adhesion of purified normal human T-cells to fibronectin was assayed with radioactively labeled T-cells as follows: normal human T-cells, purified from a fresh blood sample, were labeled with Na2[^51CrO4], washed, and resuspended in adhesion medium (RPMI-1640 supplemented with 2% BSA, 1 mM Ca^++, 1 mM Mg^++, 1% sodium pyruvate, 1% glucose, and 1% HEPES buffer). The cells were then pre-treated (30 min., 37° C.) with DPAT, and added to fibronectin coated (1 μg/well; Sigma Chemicals, St. Louis, Mo.) microtiter flat-bottomed 96 well plates (1×10^5 cells/100 μl/well). The plates were placed in a humidified incubator (37° C., 30 min., 10% CO2), and than washed thoroughly several times with PBS, to remove non-adherent T-cells. The adherent T-cells were lysed with 1% Tween 20 in 1N NaOH, and the radioactivity in the resulting supernatants was determined in a γ-counter. For each experimental group, results were expressed as the mean CPM±SD of bound T-cells from quadruplicate wells. DPAT-treated T-cell adhesion to BSA-(rather than fibronectin) coated wells, and untreated T-cell adhesion to fibronectin coated wells, were the standard negative controls.
Non-radioactive T-cell adhesion assays: Alternatively, T-cell adhesion assays were performed with non-radioactively labeled cells, differing from the above protocol only in the final detection steps which were performed as follows: After the final washing of the adhesion plates and removal of the non adherent cells, the microtiter wells were supplemented with lysis and substrate solution (60 μl/well of: 0.5% Triton X-100 in water mixed with an equal volume of 7.5 mM p-nitrophenol-N-acetyl-β-D-glucosaminide, (Sigma Chemicals, St. Louis, Mo.) in 0.1M citrate buffer pH=5.0). The plates were then incubated (˜18hr) in a CO2-free 37° C. incubator, supplemented with stop solution (90 μl/well of 50 mM glycine, (Sigma Chemicals, St. Louis, Mo.) pH=10.4 containing 5 mM EDTA), and the optical density was measured at 405 nm in a standard Elisa reader.

[3] = system: normal human peripheral T-cells
IL-4 secretion = conditions: Dopamine 10^−8 M, 24 hours
IL-10 secretion [4] = conditions: Dopamine 10^−8 M, 72 hours
TNFα secretion = TNFα secretion by human peripheral T-cells (sandwich ELISA); type: cell-based
Excerpt: as §2, §1, §2, §2, §2

α4β1 and α5β1 integrins = test: Inhibition of induced T-cell adhesion to fibronectin with specific integrin blockers; type: cell-based, human; conditions: for blocking of DPAT-induced T-cell adhesion to fibronectin by integrin blockers: DPAT 10 nM; for blocking of DPAT-induced T-cell adhesion to fibronectin by integrin blockers / blocking of Dopamine-induced T-cell adhesion to fibronectin by integrin blockers: mAbs 15-25 μg/ml, peptides 50 μg/ml; for blocking of Dopamine-induced T-cell adhesion to fibronectin by integrin blockers: Dopamine 10 nM; for inhibition of PMA-induced T-cell adhesion to fibronectin by integrin blockers: PMA as positive control
Protocol: The results are presented as the mean ±SD CPM of bound T-cells from quadruplicate wells. One experiment, representative of two, is presented for each of the three inducers of T-cell binding.
The treated cells were seeded in fibronectin-coated microtiter plates.

[5] = system: Dopamine receptors on normal human T-cells; conditions: for blocking of DPAT-induced T-cell adhesion to fibronectin: DPAT 10 nM
Protocol: Non-radioactive assessment of T-cell binding was performed as described in Material and Methods, results presented as the mean ±OD of bound T-cells from 4-6 wells.
The treated cells were suspended in adhesion medium and incubated (30 min., 37° C.) in a humidified 10% CO2 incubator. The cells were seeded in the fibronectin-coated microtiter plates, and the plates were then returned to the incubator for an additional 30 min. incubation. The amount of T-cell adhesion was determined as above.

[6] = system: SJL/J anti PLP 139-151 T-cells; test: Experimental autoimmune encephalomyelitis (EAE) induced by encephalitogenic T-cells treated ex vivo; type: in vivo, mouse; conditions: U-Mal 10^−7 M, 5 minutes before DPAT
[7] = system: oxazalone-sensitized T-cells; test: Passively transferred delayed type hypersensitivity (DTH) with T-cells treated ex vivo; type: in vivo, mouse
Protocol: Lymph nodes were removed from oxazalone-sensitized mice, and the T-cell suspension was exposed ex-vivo to increasing concentrations of DPAT (FIG. 9A, DPAT […]-DPAT 10^−6M) as described for FIG. 8 hereinabove. Control T-cells were incubated with medium only (untreated T-cells). The T-cells were then washed, resuspended in PBS and injected intravenously into naive syngeneic mice. The ears of the recipient mice were than challenged with oxazalone, and the degree of ear swelling was measured by micrometer 24 hr later. DTH is expressed as the mean ±SD of ear swelling in units of 10^−2 mm. […] Oxazalone-sensitized T-cells were incubated ex vivo for one hour with either DPAT (10^−8 M, +DPAT) or U-Mal (10^−7 M, +U-Mal), or both. The T-cells were then washed, resuspended in PBS, injected intravenously into normal recipients, and DTH measured as described hereinabove. […] FIGS. 9A and 9B represent two individual experiments, each experimental group consisting of 8 mice.
Passively transferred delayed type hypersenisitivity (DTH): Groups of 6-8 BALB/c female mice (The Jackson Laboratory, Bar Harbor, Mass., USA) were sensitized on the abdominal skin with 200 μt of 2% oxazalone dissolved in acetone/olive oil [4:1 vol/vol)] applied topically. Five days later, lymph nodes were removed from the sensitized mice, and a cell suspension prepared. The cells (3-5×10^6/ml in RPMI, no additional supplements) were than added for […] incubation ([…]. 37° C., 10% CO2 humidified incubator) with either DPAT, U-Mal, or both (in the latter combination the antagonist added 5 minutes before the agonist). The cells were than washed, resuspended in PBS, and injected IV (40×10^6 /mouse) into normal BALB/c recipients. Immediately afterwards the recipient mice were […] with 10 μl of 2% oxazalone in acetone/olive oil, applied topically to each side of the ear. A constant area of the ear was measured immediately before challenge and 24 hr after the challenge with a Mitutoyo engineer's micrometer. The individual measuring the ear swelling was unaware of the identity of the mice groups. The DTH reaction is expressed as the mean±SD (for each group) of the increment of ear swelling 24 hours after inoculation of the oxazalone-sensitized T-cells, in units of 10^−2 mm.

OC1(c2ccc(Cl)cc2)CCN(Cc2c[nH]c3ccccc23)CC1 [L-741,626]
inhibition of Dopamine-induced IL-10 secretion by receptor-specific antagonists (IL-10 secretion [1]; Dopamine 10^−8 M, 72 hours): inhibited by the D2

NCCc1ccc(O)c(O)c1 [Dopamine]
increase in the number of IL-10 producing T-helper cells [2]: 9% | optimum concentration for induction of T-cell adhesion to fibronectin (normal human T-cells): 10 nM | cellular death in normal T-cells [3]: induces cellular death | r-RNA bands in total RNA (loss of viability) ([3]; Dopamine 10^−3): near total absence of r-RNA bands | IL-4 secretion (IL-4 secretion): but not IFN-γ (FIG. 11B) or IL-4 | Dopamine concentration inducing maximal IL-10 secretion (IL-10 secretion [1]; 72 hours): 10^−4 M | Dopamine concentration with significant effect on IL-10 secretion (IL-10 secretion [1]; 72 hours): ≥ 10^−8 M | increase in IL-10 secretion (IL-10 secretion [1]; Dopamine 10 nM, 72 hours): 2.5 fold | IL-10 secretion at excess Dopamine (IL-10 secretion [1]; Dopamine 10^−3 M): drastic reduction in cytokine secretion | time of maximal IL-10 secretion (IL-10 secretion [1]; Dopamine 10^−8 M): 72 h | IL-10 release (IL-10 secretion [1]; Dopamine 10^−8 M, 72 hours, no antigen stimulation): induced a strong release of IL-10 | IL-10 secretion, cloned resting Th0 cells (IL-10 secretion [4]): strong induction | IL-10 secretion, cloned resting Th1 cells ("forbidden" cytokine) (IL-10 secretion [4]): secreting significant amounts of IL-10 | IL-10 secretion, cloned resting Th2 cells (IL-10 secretion [4]): strong induction | Dopamine concentration inducing maximal TNFα secretion (TNFα secretion; 24 hours): 10^−4 M | Dopamine concentration with significant effect on TNFα secretion (TNFα secretion; 24 hours): ≥ 10^−8 M | TNFα secretion at excess Dopamine (TNFα secretion; Dopamine 10^−3 M): drastic reduction in cytokine secretion | TNF-α release (TNFα secretion; Dopamine 10^−8 M, 24 hours, no antigen stimulation): induced a strong release of TNF-α

gly-arg-gly-glu-ser (GRGESP) [RGE-containing peptide, non-relevant RGE-containing control peptide]
blocking of DPAT-induced T-cell adhesion to fibronectin by integrin blockers (α4β1 and α5β1 integrins): No significant effect | blocking of Dopamine-induced T-cell adhesion to fibronectin by integrin blockers (α4β1 and α5β1 integrins): No significant effect | inhibition of PMA-induced T-cell adhesion to fibronectin by integrin blockers (α4β1 and α5β1 integrins): insensitivity

CC(C)(C)[C@]1(O)CCN2C[C@H]3c4ccccc4CCc4cccc(c43)[C@@H]2C1 [Butaclamol]
blocking of DPAT-induced T-cell adhesion to fibronectin [5]: without effect

gly-arg-gly-asp-ser (GRGDS) [RGD peptide]
blocking of DPAT-induced T-cell adhesion to fibronectin by integrin blockers (α4β1 and α5β1 integrins): effectively blocked | blocking of Dopamine-induced T-cell adhesion to fibronectin by integrin blockers (α4β1 and α5β1 integrins): effectively blocked | inhibition of PMA-induced T-cell adhesion to fibronectin by integrin blockers (α4β1 and α5β1 integrins): inhibition

Oc1cc2c(cc1O)C(c1ccccc1)CNCC2 (centres unmarked) [SKF 38393]
induction of TNFα secretion by receptor-specific Dopamine agonists (TNFα secretion; agonist 10^−7 M, 24 hours): induced by D1

CCCN(CCC)C1Cc2cc(OC)c(OC)cc2C1.O=C(O)/C=C\C(=O)O [U-Mal, U-99194A maleate]
effect of pre-treatment on the DPAT suppressive effect in EAE [6]: prevented | effect on DTH by itself ([7]; U-Mal 10^−7 M alone): no effect by itself | effect of pre-treatment on DPAT suppression of DTH ([7]; U-Mal 10^−7 M, 5 minutes before DPAT 10^−8 M): near total block of protection; also recorded: prevented | inhibition of Dopamine-induced IL-10 secretion by receptor-specific antagonists (IL-10 secretion [1]; Dopamine 10^−8 M, 72 hours): inhibited by the D2 and D3 | blocking of DPAT-induced T-cell adhesion to fibronectin [5]: succeeded in blocking | independent effect on T-cell adhesion to fibronectin ([5]; antagonist alone, data not shown): no independent effect | toxic effects on the human T-cells ([5]; data not shown): no toxic effects | inhibition of Dopamine-induced TNFα secretion by receptor-specific antagonists (TNFα secretion; Dopamine 10^−8 M, 24 hours, L-741,626 10^−7 M, U-Mal 10^−6 M, L-741,741 10^−6 M): inhibited by D3
